# Laboratory results taken from patent publication US20250019387A1 (Frontier Medicines Corporation, priority 0001, published 2025).
# Target: KRAS G12C and cRAF (Ras-binding domain) interaction (Homo sapiens (Human), UniProt P01116, C118S/C51S/C80L/G12C)
# Assay: Inhibition of KRAS G12C and cRAF binding (AlphaScreen)
# Conditions: GMPPNP-loaded KRAS G12C, 19-20 hours incubation with compound; read-out: IC50 (Inhibition of KRAS G12C and cRAF Binding)
# Method in brief: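 Compounds (DMSO) preincubated 19-20 h at room temperature, then RBD with streptavidin donor and glutathione acceptor beads added in 25 mM Hepes pH 7.4, 150 mM NaCl, 5 mM MgCl2, 0.01% Triton X-100, 2% DMSO for 60-90 min. Emission 570 nm (excitation 680 nm); IC50 by 4-parameter fit. Counter-screen used biotin-AviTag-GST instead of RBD.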
# KRAS G12C and cRAF (Ras-binding domain) interaction, sequence (P01116 other isoform, or with tags, fused parts or gaps G12C/C51S/C80L/C118S): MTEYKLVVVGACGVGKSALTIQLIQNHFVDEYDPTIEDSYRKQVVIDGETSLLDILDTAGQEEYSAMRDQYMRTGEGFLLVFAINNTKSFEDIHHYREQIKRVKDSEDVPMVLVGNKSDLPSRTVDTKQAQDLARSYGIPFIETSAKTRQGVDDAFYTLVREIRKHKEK
row,Compound,IC50
1,"COCCN(C)C/C=C/C(=O)N1CC[C@@H](N(C)c2nc(OC[C@@]34CCCN3C[C@H](F)C4)nc3c(F)c(-c4cccc5cccc(Cl)c45)ncc23)C1 [Example 235, (E)-1-((R)-3-((7-(8-chloronaphthalen-1-yl)-8-fluoro-2-(((2R,7aS)-2-fluorohexahydro-1H-pyrrolizin-7a-yl)methoxy)pyrido[4,3-d]pyrimidin-4-yl)(methyl)amino)pyrrolidin-1-yl)-4-((2-methoxyethyl)(methyl)amino)but-2-en-1-one]",< 10 nM
2,"COC(=O)/C=C/C(=O)N1CC(CN(C)c2nc(OC[C@@H]3CCCN3C)nc3c2CCN(c2cccc4cccc(Cl)c24)C3)C1 [Example 16, methyl(S,E)-4-(3-(((7-(8-chloronaphthalen-1-yl)-2-((1-methylpyrrolidin-2-yl)methoxy)-5,6,7,8-tetrahydropyrido[3,4-d]pyrimidin-4-yl)(methyl)amino)methyl)azetidin-1-yl)-4-oxobut-2-enoate]",10 to 100 nM
3,"COC/C=C/C(=O)N1CCC(N(C)c2nc(OC[C@@H]3CCCN3C)nc3c2CCN(c2cccc4cccc(Cl)c24)C3)C1 (stereo partly drawn) [Example 5, (E)-1-(3-((7-(8-chloronaphthalen-1-yl)-2-(((S)-1-methylpyrrolidin-2-yl)methoxy)-5,6,7,8-tetrahydropyrido[3,4-d]pyrimidin-4-yl)(methyl)amino)pyrrolidin-1-yl)-4-methoxybut-2-en-1-one]",> 500 nM
4,"CN(CC1CN(C#N)C1)c1nc(OC[C@@H]2CCCN2C)nc2c1CCN(c1cccc3cccc(Cl)c13)C2 [Example 30, (S)-3-(((7-(8-chloronaphthalen-1-yl)-2-((1-methylpyrrolidin-2-yl)methoxy)-5,6,7,8-tetrahydropyrido[3,4-d]pyrimidin-4-yl)(methyl)amino)methyl)azetidine-1-carbonitrile]",> 500 nM
5,"COC(=O)/C=C/C(=O)N1CC[C@@H](N(C)c2nc(OC[C@@H]3CCCN3C)nc3c2CCN(c2cccc4cccc(Cl)c24)C3)C1 [Example 10, methyl(E)-4-((R)-3-((7-(8-chloronaphthalen-1-yl)-2-(((S)-1-methylpyrrolidin-2-yl)methoxy)-5,6,7,8-tetrahydropyrido[3,4-d]pyrimidin-4-yl)(methyl)amino)pyrrolidin-1-yl)-4-oxobut-2-enoate]",10 to 100 nM
6,"CN(CC1CN(C(=O)/C=C/[C@H]2CCN2C)C1)c1nc(OC[C@@]23CCCN2C[C@H](F)C3)nc2c(F)c(-c3cccc4ccc(F)c(Cl)c34)ncc12 [Example 221, (E)-1-(3-(((7-(8-chloro-7-fluoronaphthalen-1-yl)-8-fluoro-2-(((2R,7aS)-2-fluorotetrahydro-1H-pyrrolizin-7a(5H)-yl)methoxy)pyrido[4,3-d]pyrimidin-4-yl)(methyl)amino)methyl)azetidin-1-yl)-3-((R)-1-methylazetidin-2-yl)prop-2-en-1-one]",< 10 nM
7,"Cc1nccc(/C=C/C(=O)N2CC(CN(C)c3nc(OC[C@@]45CCCN4C[C@H](F)C5)nc4c(F)c(-c5cccc6cccc(Cl)c56)ncc34)C2)n1 [Example 62, (E)-1-(3-(((7-(8-chloronaphthalen-1-yl)-8-fluoro-2-(((2R,7aS)-2-fluorotetrahydro-1H-pyrrolizin-7a(5H)-yl)methoxy)pyrido[4,3-d]pyrimidin-4-yl)(methyl)amino)methyl)azetidin-1-yl)-3-(2-methylpyrimidin-4-yl)prop-2-en-1-one]",10 to 100 nM
8,"CN1CC(C)(C#CC(=O)N2CC[C@@H](N(C)c3nc(OC[C@@]45CCCN4C[C@H](F)C5)nc4c(F)c(-c5cccc6cccc(Cl)c56)ncc34)C2)C1 [Example 242, 1-((R)-3-((7-(8-chloronaphthalen-1-yl)-8-fluoro-2-(((2R,7aS)-2-fluorohexahydro-1H-pyrrolizin-7a-yl)methoxy)pyrido[4,3-d]pyrimidin-4-yl)(methyl)amino)pyrrolidin-1-yl)-3-(1,3-dimethylazetidin-3-yl)prop-2-yn-1-one]",< 10 nM
9,"CN(CC1CN(C(=O)/C=C/c2nc(C(C)(C)O)no2)C1)c1nc(OC[C@@]23CCCN2C[C@H](F)C3)nc2c(F)c(-c3cccc4cccc(Cl)c34)ncc12 [Example 105, (E)-1-(3-(((7-(8-chloronaphthalen-1-yl)-8-fluoro-2-(((2R,7aS)-2-fluorotetrahydro-1H-pyrrolizin-7a(5H)-yl)methoxy)pyrido[4,3-d]pyrimidin-4-yl)(methyl)amino)methyl)azetidin-1-yl)-3-(3-(2-hydroxypropan-2-yl)-1,2,4-oxadiazol-5-yl)prop-2-en-1-one]",< 10 nM
10,"CN(c1nc(OC[C@@]23CCCN2C[C@H](F)C3)nc2c1CCN(c1cccc3cccc(Cl)c13)C2)[C@@H]1CCN(C(=O)/C=C/c2cn(C)cn2)C1 [Example 110, (E)-1-((R)-3-((7-(8-chloronaphthalen-1-yl)-2-(((2R,7aS)-2-fluorohexahydro-1H-pyrrolizin-7a-yl)methoxy)-5,6,7,8-tetrahydropyrido[3,4-d]pyrimidin-4-yl)(methyl)amino)pyrrolidin-1-yl)-3-(1-methyl-1H-imidazol-4-yl)prop-2-en-1-one]",> 500 nM
11,"CN(c1nc(OC[C@@]23CCCN2C[C@H](F)C3)nc2c(F)c(-c3cccc4cccc(Cl)c34)ncc12)[C@@H]1CCN(C(=O)/C=C/CN2CCOCC2)C1 [Example 90, (E)-1-((R)-3-((7-(8-chloronaphthalen-1-yl)-8-fluoro-2-(((2R,7aS)-2-fluorohexahydro-1H-pyrrolizin-7a-yl)methoxy)pyrido[4,3-d]pyrimidin-4-yl)(methyl)amino)pyrrolidin-1-yl)-4-morpholinobut-2-en-1-one]",10 to 100 nM
12,"CN1CC(=CC(=O)N2CC[C@@H](N(C)c3nc(OC[C@@]45CCCN4C[C@H](F)C5)nc4c(F)c(-c5cccc6ccc(F)c(F)c56)ncc34)C2)C1 [Example 299, 1-((R)-3-((7-(7,8-difluoronaphthalen-1-yl)-8-fluoro-2-(((2R,7aS)-2-fluorotetrahydro-1H-pyrrolizin-7a(5H)-yl)methoxy)pyrido[4,3-d]pyrimidin-4-yl)(methyl)amino)pyrrolidin-1-yl)-2-(1-methylazetidin-3-ylidene)ethan-1-one]",< 10 nM
13,"CN(c1nc(OC[C@@]23CCCN2C[C@H](F)C3)nc2c(F)c(-c3cccc4ccc(F)c(Cl)c34)ncc12)[C@@H]1CCN(C(=O)/C=C/C2COCCN2)C1 (stereo partly drawn) [Example 123, (E)-1-((R)-3-((7-(8-chloro-7-fluoronaphthalen-1-yl)-8-fluoro-2-(((2R,7aS)-2-fluorotetrahydro-1H-pyrrolizin-7a(5H)-yl)methoxy)pyrido[4,3-d]pyrimidin-4-yl)(methyl)amino)pyrrolidin-1-yl)-3-(morpholin-3-yl)prop-2-en-1-one]",100 to 500 nM
14,"CN(c1nc(OC[C@@]23CCCN2C[C@H](F)C3)nc2c(F)c(-c3cccc4cccc(Cl)c34)ncc12)[C@H]1CN(C(=O)/C=C/c2nc(C(C)(C)O)no2)C[C@@H]1F [Example 56, (E)-1-((3S,4S)-3-((7-(8-chloronaphthalen-1-yl)-8-fluoro-2-(((2R,7aS)-2-fluorohexahydro-1H-pyrrolizin-7a-yl)methoxy)pyrido[4,3-d]pyrimidin-4-yl)(methyl)amino)-4-fluoropyrrolidin-1-yl)-3-(3-(2-hydroxypropan-2-yl)-1,2,4-oxadiazol-5-yl)prop-2-en-1-one]",10 to 100 nM

# Same assay, conditions: additional exemplary compounds; KRAS G12C and cRAF binding; read-out: RAF1 RBD IC50
row,Compound,IC50
1,C=CC(=O)N1CC[C@H](C)[C@H](Nc2nc(OC[C@@]34CCCN3C[C@H](F)C4)nc3c(F)c(-c4cccc5cccc(Cl)c45)ncc23)C1,> 500 nM
2,CN(c1nc(OCC23CCCN2CCC3)nc2c1CCN(c1cccc3cccc(Cl)c13)C2)[C@@H]1CCN(C(=O)/C=C/CN2CC(F)C2)C1,10 to 100 nM
3,C=CS(=O)(=O)CCN(C)c1nc(OC[C@@H]2CCCN2C)nc2c(F)c(-c3cccc4cccc(Cl)c34)ncc12,100 to 500 nM
4,C=CC(=O)CCCN(C)c1nc(OC[C@@H]2CCCN2C)nc2c1CCN(c1cccc3cccc(Cl)c13)C2,< 10 nM
5,Cc1nccc(/C=C/C(=O)N2CC3CC(C2)N3c2nc(OC[C@@]34CCCN3C[C@H](F)C4)nc3c(F)c(-c4cccc5cccc(Cl)c45)ncc23)n1,> 500 nM
6,CN(C)C/C=C/C(=O)N1CC(CN(C)c2nc(OCC34CCCN3CCC4)nc3c2CCN(c2cccc4cccc(Cl)c24)C3)C1,100 to 500 nM
7,C=CC(=O)N1CC[C@@H](N(C)c2nc(OCC34CCCN3CCC4)nc3c2CCN(c2cccc4ccc(F)c(Cl)c24)C3)C1,100 to 500 nM
8,C=CC(=O)N1CC[C@@H](O)[C@H](N(C)c2nc(OC[C@@]34CCCN3C[C@H](F)C4)nc3c(F)c(-c4cccc5cccc(Cl)c45)ncc23)C1,> 500 nM
9,C=CC(=O)COc1nc(OC[C@@H]2CCCN2C)nc2c1CCN(c1cccc3ccccc13)C2,> 500 nM
10,CN(CCS(=O)(=O)/C=C/CC1CC1)c1nc(OC[C@@H]2CCCN2C)nc2c(F)c(-c3cccc4cccc(Cl)c34)ncc12,> 500 nM
11,C=CC(=O)N1CC[C@@H](N(C)c2nc(OCC34CCCN3CCC4)nc3c(F)c(-c4cccc5ccc(F)c(Cl)c45)ncc23)C1,10 to 100 nM
12,Cc1nccc(/C=C/C(=O)N2CC3(CCN(c4nc(OC[C@@]56CCCN5C[C@H](F)C6)nc5c(F)c(-c6cccc7cccc(Cl)c67)ncc45)C3)C2)n1,> 500 nM
13,C=CC(=O)N1CC2CC(Nc3nc(OC[C@@]45CCCN4C[C@H](F)C5)nc4c(F)c(-c5cccc6cccc(Cl)c56)ncc34)C1C2 (stereo partly drawn),> 500 nM
14,C=CC(=O)N1CC[C@@H](N(C)c2nc(OC[C@@H]3CCCN3C)nc3c(F)c(-c4cccc5cccc(Cl)c45)ncc23)C1,> 500 nM
15,O=C(/C=C/CN1CCOCC1)N1C[C@H]2CC[C@@H](C1)N2c1nc(OC[C@@]23CCCN2C[C@H](F)C3)nc2c(F)c(-c3cccc4cccc(Cl)c34)ncc12,> 500 nM
16,CN(C)C/C=C/S(=O)(=O)CCN(C)c1nc(OCC23CCCN2CCC3)nc2c1CCN(c1cccc3cccc(Cl)c13)C2,< 10 nM
